Data from patent US6713493B2, “Use of nicergoline in the treatment of spasticity” (Aventis Pharma S.A., priority 1998, dated 2004).

Assays:
[1] = tested on: spasticity in amyotrophic lateral sclerosis; conditions: riluzole sold as Rilutek for ALS; cited from earlier work
[2] = tested on: stiffness (spasticity) in patients suffering from ALS; experiment: Descriptive study on 9 ALS patients: stiffness self-assessed on a 100 mm visual analog scale (VAS) before and after nicergoline; format: in vivo, human (patients)
Description: A descriptive study on 9 patients suffering from ALS was carried out. The main criterion defined is the stiffness, measured using a visual analog scale (VAS), of 100 mm, or the individual rates by self-assessment the severity of the stiffness perceived. The patients receive 100 mg/day of riluzole and 15 mg IV of nicergoline on the first day and 30 mg IV on the next 4 days. The duration of infusion was more than 4 hours to avoid any risk of hypotension. The measurement was carried out before and after administration of nicergoline.

Structure (SMILES)	Effect on spasticity (in words) [1]	Stiffness (VAS, 100 mm) after administration of nicergoline, mean±standard deviation ([2]; 9 ALS patients on riluzole 100 mg/day, nicergoline 15 mg IV day 1, 30 mg IV next 4 days, measured 4 days later (from 4 to 8 d), stiffness before administration 67.33±25) [mm]	Intra-individual difference in stiffness (VAS) before vs after nicergoline, mean±standard deviation ([2]; 9 ALS patients, same regimen, range −8 to +57, comparison at zero difference significant (t=2.809, p (2α)=0.0229)) [mm]	Effect on pyramidal spasticity of neurological diseases involving an attack of the pyramidal pathway (in words) ([2]; in particular spasticity during ALS)
Nc1nc2ccc(OC(F)(F)F)cc2s1 [Riluzole, 2-amino-6-trifluoro-methoxybenzothiazole]	no effect on the spasticity	–	–	–
CO[C@]12C[C@@H](COC(=O)c3cncc(Br)c3)CN(C)[C@@H]1Cc1cn(C)c3cccc2c13 [nicergoline, (8β)-10-methoxy-1,6-dimethylergoline-8-methanol-5-bromonicotinate]	–	48.11±19	19.22±20.5	reduces the pyramidal spasticity
